Reference: paper PMC2915928 (Bioorganic & medicinal chemistry, 2009)
Like-named read-outs stand apart in the source and are kept apart here.

Experiments:
[1] = human liver microsomes
[2] = target: T1, nociceptin (NOP) receptor (Homo sapiens, UniProt P41146); test: biochemical; settings: read-out: NOP Emax, stimulation of [35S]GTPγS binding
[3] = target: T1, nociceptin (NOP) receptor; test: Inhibition of basal [35S]GTPγS binding; type: biochemical; settings: read-out: NOP Emax, inhibition of basal [35S]GTPγS binding
[4] = target: T2, μ-opioid receptor (Mus musculus, UniProt P42866)
[5] = target: T2, μ-opioid receptor; test: biochemical; settings: read-out: μ Emax, stimulation of [35S]GTPγS binding
[6] = target: T2, μ-opioid receptor; test: biochemical; settings: read-out: μ Emax, inhibition of basal [35S]GTPγS binding

T2 sequence (P42866 whole entry): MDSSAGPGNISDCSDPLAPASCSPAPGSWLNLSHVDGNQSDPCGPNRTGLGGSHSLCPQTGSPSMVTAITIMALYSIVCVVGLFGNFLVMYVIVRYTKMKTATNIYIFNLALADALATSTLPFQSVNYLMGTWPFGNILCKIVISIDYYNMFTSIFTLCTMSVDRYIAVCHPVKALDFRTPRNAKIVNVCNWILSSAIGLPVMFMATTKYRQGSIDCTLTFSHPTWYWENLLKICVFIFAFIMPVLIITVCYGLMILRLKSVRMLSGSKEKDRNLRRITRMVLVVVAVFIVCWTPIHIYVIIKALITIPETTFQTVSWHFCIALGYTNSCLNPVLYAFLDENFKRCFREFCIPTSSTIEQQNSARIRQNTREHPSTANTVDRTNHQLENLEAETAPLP
T1 sequence (P41146 whole entry): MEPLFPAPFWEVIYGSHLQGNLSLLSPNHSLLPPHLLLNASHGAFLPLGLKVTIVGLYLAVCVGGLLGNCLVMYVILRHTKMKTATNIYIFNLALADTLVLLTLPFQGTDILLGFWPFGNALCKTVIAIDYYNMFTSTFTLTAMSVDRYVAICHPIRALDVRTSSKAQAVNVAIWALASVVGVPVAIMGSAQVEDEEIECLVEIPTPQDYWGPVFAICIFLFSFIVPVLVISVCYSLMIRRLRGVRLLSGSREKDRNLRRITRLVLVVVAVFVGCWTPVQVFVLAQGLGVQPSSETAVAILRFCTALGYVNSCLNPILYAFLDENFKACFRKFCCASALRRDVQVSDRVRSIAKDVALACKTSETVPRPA

SMILES | Change of N-oxide formation rate upon going from pH 7.4 to pH 10 [1] | Emax [2] | Emax [3] | μ Emax, stimulation of [35S]GTPγS binding [4] | Emax [5] | Emax [6]
O=C(N[C@@H]1CC[C@@]2(O)[C@H]3Cc4ccc(O)c5c4[C@@]2(CCN3CC2CC2)[C@H]1O5)c1ccc(Br)cc1.O=C(O)C(=O)O [Compound 6, 17-Cyclopropylmethyl-3,14β-dihydroxy-4,5α-epoxy-6β-[(4′-bromo)benzamido] morphinan] | doubled | – | – | – | – | –
O=C(N[C@@H]1CC[C@@]2(O)[C@H]3Cc4ccc(O)c5c4[C@@]2(CCN3CC2CC2)[C@H]1O5)c1ccc(Cl)c(Cl)c1.O=C(O)C(=O)O [Compound 9] | – | 0% | 87 ± 6.9% | 85 ± 7.4% | 80 to 85% | 0%
